Data reported in patent US20180071317A1, “USE OF AGENTS THAT ALTER THE PERITUMORAL ENVIRONMENT FOR THE TREATMENT OF CANCER” (SERVICIO ANDALUZ DE SALUD, priority 2011, published 2018).

Assays:
[1] = tested on: macrophages in co-culture with cells isolated from primary human tumors; assay: Marker expression (IHC) in macrophages co-cultured with primary human tumor cells (colon, breast, ovarian, lung carcinoma, melanoma); type: cell-based; conditions: SP + antagonist;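 note: macrophages came from pleural or peritoneal washings of the patient who also supplied the tumor cells, and both were co-cultured on fresh blood plasma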
[2] = tested on: co-cultures of tumor cells-immune/inflammatory cells (leukocytes); assay: Inhibition/survival in co-cultures of primary human tumor cells and leukocytes; type: cell-based; conditions: SP + antagonist
Protocol: To check that the interaction between the human primary tumor cells with human immune/inflammatory (polymorphonuclear and mononuclear leukocytes) cells, promotes the survival of both types of cells, cultures were carried out with sets of immune/inflammatory cells (mono and polymorphonuclear leukocytes) with tumor cells obtained directly from human primary tumors of patients.
The leukocytes were obtained from centrifugation of blood from the same patient. The leukocytes were cultured in fresh plasma from the same patient, in order to build a model similar to human physiology.

## COc1ccccc1CN[C@H]1C2CCN(CC2)[C@H]1C(c1ccccc1)c1ccccc1 [CP-96345]
[1]
  expression of markers in macrophages co-cultured with primary tumor cells (in words): same results
[2]
  survival/proliferation in co-cultures of tumor cells-leukocytes (in words): same results

## COc1ccccc1CN[C@H]1CCCN[C@H]1c1ccccc1 [CP-100263]
[1]
  expression of markers in macrophages co-cultured with primary tumor cells (in words): same results
[2]
  survival/proliferation in co-cultures of tumor cells-leukocytes (in words): same results

## Ic1ccccc1CNC1C2CCN(CC2)C1C(c1ccccc1)c1ccccc1.O=C(O)C(=O)O [L-703,606, cis-2-(Diphenylmethyl)-N-[(2-iodophenyl)methyl]-1-azabicyclo [2.2.2]octan-3-amine oxalate salt]
[1]
  expression of markers in macrophages co-cultured with primary tumor cells (in words): same results
[2]
  survival/proliferation in co-cultures of tumor cells-leukocytes (in words): same results

## CC(=O)N[C@@H](Cc1c[nH]c2ccccc12)C(=O)OCc1cc(C(F)(F)F)cc(C(F)(F)F)c1 [L-732,138, N-Acetyl-L-tryptophan 3,5-bis (trifluoromethyl)benzyl ester]
[1]
  expression of markers in macrophages co-cultured with primary tumor cells (in words): same results
[2]
  survival/proliferation in co-cultures of tumor cells-leukocytes (in words): same results

## Cl.FC(F)(F)c1cc(CO[C@H]2CCCN[C@H]2c2ccccc2)cc(C(F)(F)F)c1 [L-733,060, (2S,3S)-3-[(3,5-bis (Trifluoromethyl)phenyl)methoxy]-2-phenylpiperidine hydrochloride]
[1]
  expression of markers in macrophages co-cultured with primary tumor cells (in words): same results
[2]
  survival/proliferation in co-cultures of tumor cells-leukocytes (in words): same results

## C[C@@H](O[C@H]1OCCN(Cc2n[nH]nc2CN(C)C)[C@H]1c1ccc(F)cc1)c1cc(C(F)(F)F)cc(C(F)(F)F)c1.Cl [L-760735]
[1]
  expression of markers in macrophages co-cultured with primary tumor cells (in words): same results
[2]
  survival/proliferation in co-cultures of tumor cells-leukocytes (in words): same results

## C#C[C@]1(O)CC[C@H]2[C@@H]3CCC4=Cc5nc6nc7ccccc7n6cc5C[C@]4(C)[C@H]3CC[C@@]21C [WIN 62,577]
[1]
  expression of markers in macrophages co-cultured with primary tumor cells (in words): same results
[2]
  survival/proliferation in co-cultures of tumor cells-leukocytes (in words): same results

## C#C[C@]1(O)CC[C@H]2[C@@H]3CC[C@H]4Cc5nc6nc7ccccc7n6cc5C[C@]4(C)[C@H]3CC[C@@]21C [WIN 51708]
[1]
  expression of markers in macrophages co-cultured with primary tumor cells (in words): same results
[2]
  survival/proliferation in co-cultures of tumor cells-leukocytes (in words): same results
